# Test results: patent publication US9556150B2, “Inhibitors of bruton's tyrosine kinase” (Hoffmann-La Roche Inc., priority 2013, dated 2017)
# Biological target: Bruton's Tyrosine Kinase (BTK), inactivated state (Homo sapiens (Human), UniProt Q06187)
# Assay: Bruton's Tyrosine Kinase (BTK) Inhibition TR-FRET (Time Resolved FRET) competition assay
# Assay type: binding
# Settings: TR-FRET competition with Kinase Tracer 178, BTK-Eu complex, 18-24 h at 14° C.
# Procedure: Bruton's Tyrosine Kinase (BTK) Inhibition TR-FRET (Time Resolved FRET) Assay
# This BTK competition assay measures compound potency (IC50) for the inactivated state of Bruton's Tyrosine Kinase using FRET (Förster/Fluorescence Resonance Energy Transfer) technology. The BTK-Eu complex was incubated on ice one hour prior to use at a starting concentration of 50 nM BTK-Bioease™: 10 nM Eu-streptavidin (Perkin-Elmer Catalog#AD0062). The assay buffer consisted of 20 mM HEPES (pH 7.15), 0.1 mM DTT, 10 mM MgCl2, 0.5 mg/ml BSA with 3% Kinase Stabilizer (Fremont Biosolutions, Catalog #STB-K02). After 1 h, the reaction mixture from above was diluted 10 fold in assay buffer to make 5 nM BTK: 1 nM Eu-Streptavidin complex (donor fluorophore). 18 μl of a mixture of 0.11 nM BTK-Eu and 0.11 nM Kinase Tracer 178 (Invitrogen, Catalog #PV5593,) with BTK-Eu alone as no negative control, was then dispensed into 384-well flat bottom plates (Greiner, 784076). Compounds to be tested in assay were prepared as 10× concentrations and serial dilution in half-log increments was performed in DMSO so as to generate 10 point curves. To initiate the FRET reaction, compounds prepared as 10× stock in DMSO was added to the plates and the plates were incubated 18-24 h at 14° C.
# After the incubation the plates were read on a BMG Pherastar Fluorescent plate reader (or equivalent) and used to measure the emission energy from the europium donor fluorophore (620 nm emission) and the FRET (665 nm emission). The negative control well values were averaged to obtain the mean minimum. The positive “no inhibitor” control wells were averaged to obtain the mean maximum. Percent of maximal FRET was calculated using following equation: % max FRET=100×[(FSR cmpd−FSR mean min)/(FSR mean max−FSR mean min)]
# where FSR=FRET Signal ratio. % Max FRET curves were plotted in Activity Base (Excel) and the IC50(%), hill slope, z′ and % CV were determined. The mean IC50 and standard deviation will be derived from duplicate curves (singlet inhibition curves from two independent dilutions) using Microsoft Excel.
# Representative compound data for this assay are listed below in Table II.
# Bruton's Tyrosine Kinase (BTK), inactivated state, sequence (Q06187 whole entry): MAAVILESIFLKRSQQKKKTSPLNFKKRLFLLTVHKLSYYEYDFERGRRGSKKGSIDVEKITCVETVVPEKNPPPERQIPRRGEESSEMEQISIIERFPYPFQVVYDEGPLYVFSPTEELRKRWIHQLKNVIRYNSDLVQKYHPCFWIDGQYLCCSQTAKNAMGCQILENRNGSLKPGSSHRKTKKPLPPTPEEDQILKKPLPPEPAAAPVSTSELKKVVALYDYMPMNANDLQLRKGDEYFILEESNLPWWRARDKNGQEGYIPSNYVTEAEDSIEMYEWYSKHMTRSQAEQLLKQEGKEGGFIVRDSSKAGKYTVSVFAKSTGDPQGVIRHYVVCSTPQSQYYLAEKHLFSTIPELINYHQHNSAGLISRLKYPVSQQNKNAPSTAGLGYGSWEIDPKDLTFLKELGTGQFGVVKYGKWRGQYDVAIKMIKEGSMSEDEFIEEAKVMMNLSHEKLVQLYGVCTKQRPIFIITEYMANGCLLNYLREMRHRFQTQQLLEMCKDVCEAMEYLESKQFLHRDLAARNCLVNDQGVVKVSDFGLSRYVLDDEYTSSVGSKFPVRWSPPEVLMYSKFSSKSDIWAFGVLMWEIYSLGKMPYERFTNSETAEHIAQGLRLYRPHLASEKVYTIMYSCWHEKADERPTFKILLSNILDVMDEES
row,Compound,IC50
1,"Nc1c(C(=O)c2cc3cc(C(=O)N4CCOCC4)ccc3[nH]2)cnn1-c1ccc(Oc2ccccc2)cc1 [Example I-1, [5-Amino-1-(4-phenoxy-phenyl)-1H-pyrazol-4-yl]-[5-(morpholine-4-carbonyl)-1H-indol-2-yl]-methanone]",6.8 nM
2,"Cc1cc(Oc2ccccc2F)ccc1-n1ncc(C(=O)c2cc3cc(C(=O)N4CCOCC4)ccc3[nH]2)c1N [Example I-2, {5-Amino-1-[4-(2-fluoro-phenoxy)-2-methyl-phenyl]-1H-pyrazol-4-yl}-[5-(morpholine-4-carbonyl)-1H-indol-2-yl]-methanone]",4.6 nM
3,"Cc1cc(Oc2ccccc2)ncc1-n1ncc(C(=O)c2cc3cc(C(=O)N4CCOCC4)ccc3[nH]2)c1N [Example I-3, [5-Amino-1-(4-methyl-6-phenoxy-pyridin-3-yl)-1H-pyrazol-4-yl]-[5-(morpholine-4-carbonyl)-1H-indol-2-yl]-methanone]",25 nM
4,"Nc1c(C(=O)c2cc3cc(C(=O)N4CCOCC4)ccc3[nH]2)cnn1-c1ccc(Oc2ccccc2)c(F)c1 [Example I-4, [5-Amino-1-(3-fluoro-4-phenoxy-phenyl)-1H-pyrazol-4-yl]-[5-(morpholine-4-carbonyl)-1H-indol-2-yl]-methanone]",12 nM
5,Cc1cc(Oc2cccc(F)c2F)ccc1-n1ncc(C(=O)c2cc3cc(C(=O)N4CCOCC4)ccc3[nH]2)c1N [Example I-5],2.3 nM
6,"Cc1cc(Oc2ccccc2)c(F)cc1-n1ncc(C(=O)c2cc3cc(C(=O)N4CCOCC4)ccc3[nH]2)c1N [Example I-6, {2-[5-Amino-1-(5-fluoro-2-methyl-4-phenoxy-phenyl)-1H-pyrazole-4-carbonyl]-1H-indol-5-yl}-morpholin-4-yl-methanone]",43 nM
7,"Cc1cc(Oc2ccccc2)ccc1-n1ncc(C(=O)c2cc3cc(C(=O)N4CCOCC4)ccc3[nH]2)c1N [Example I-7, {2-[5-Amino-1-(2-methyl-4-phenoxy-phenyl)-1H-pyrazole-4-carbonyl]-1H-indol-5-yl}-morpholin-4-yl-methanone]",2.6 nM
8,"Nc1c(C(=O)c2cc3cc(C(=O)N4CCOCC4)ccc3[nH]2)cnn1-c1ccc(Oc2ccccc2)cc1F [Example I-8, [5-Amino-1-(2-fluoro-4-phenoxy-phenyl)-1H-pyrazol-4-yl]-[5-(morpholine-4-carbonyl)-1H-indol-2-yl]-methanone]",14.4 nM
9,"Nc1c(C(=O)c2cc3cc(C(=O)N4CCOCC4)ccc3[nH]2)cnn1-c1ccc(Oc2ccccc2F)nc1 [Example I-9, {5-Amino-1-[6-(2-fluoro-phenoxy)-pyridin-3-yl]-1H-pyrazol-4-yl}-[5-(morpholine-4-carbonyl)-1H-indol-2-yl]-methanone]",220 nM
10,"Nc1c(C(=O)c2cc3cc(C(=O)N4CCOCC4)ccc3[nH]2)cnn1-c1ccc(Oc2cccc(F)c2F)nc1 [Example I-10, {5-Amino-1-[6-(2,3-difluoro-phenoxy)-pyridin-3-yl]-1H-pyrazol-4-yl}-[5-(morpholine-4-carbonyl)-1H-indol-2-yl]-methanone]",180 nM
11,"Cc1cc(Oc2ccccn2)ccc1-n1ncc(C(=O)c2cc3cc(C(=O)N4CCOCC4)ccc3[nH]2)c1N [Example I-11, {5-Amino-1-[2-methyl-4-(pyridin-2-yloxy)-phenyl]-1H-pyrazol-4-yl}-[5-(morpholine-4-carbonyl)-1H-indol-2-yl]-methanone]",200 nM
12,"Nc1c(C(=O)c2cc3cc(C(=O)N4CCOCC4)ccc3[nH]2)cnn1-c1ccc(Oc2cccc(F)c2F)cc1 [Example I-12, {5-Amino-1-[4-(2,3-difluoro-phenoxy)-phenyl]-1H-pyrazol-4-yl}-[5-(morpholine-4-carbonyl)-1H-indol-2-yl]-methanone]",13 nM
13,"Nc1c(C(=O)c2cc3cc(C(=O)N4CCOCC4)ccc3[nH]2)cnn1-c1ccc(Oc2cc(F)ccc2F)nc1 [Example I-13, {5-Amino-1-[6-(2,5-difluoro-phenoxy)-pyridin-3-yl]-1H-pyrazol-4-yl}-[5-(morpholine-4-carbonyl)-1H-indol-2-yl]-methanone]",530 nM
14,"Nc1c(C(=O)c2cc3cc(C(=O)N4CCOCC4)ccc3[nH]2)cnn1-c1ccc(Oc2ccccc2)cc1Cl [Example I-14, [5-Amino-1-(2-chloro-4-phenoxy-phenyl)-1H-pyrazol-4-yl]-[5-(morpholine-4-carbonyl)-1H-indol-2-yl]-methanone]",0.46 nM
15,"Nc1c(C(=O)c2cc3cc(C(=O)N4CCOCC4)ccc3[nH]2)cnn1-c1ccc(Oc2ccccc2F)cc1Cl [Example I-15, {5-Amino-1-[2-chloro-4-(2-fluoro-phenoxy)-phenyl]-1H-pyrazol-4-yl}-[5-(morpholine-4-carbonyl)-1H-indol-2-yl]-methanone]",0.82 nM
16,"Cc1cc(Oc2cccc(Cl)c2)ccc1-n1ncc(C(=O)c2cc3cc(C(=O)N4CCOCC4)ccc3[nH]2)c1N [Example I-16, (2-{5-Amino-1-[4-(3-chloro-phenoxy)-2-methyl-phenyl]-1H-pyrazole-4-carbonyl}-1H-indol-5-yl)-morpholin-4-yl-methanone]",3.6 nM
17,"Cc1cc(Oc2cccc(Br)c2)ccc1-n1ncc(C(=O)c2cc3cc(C(=O)N4CCOCC4)ccc3[nH]2)c1N [Example I-17, (2-{5-Amino-1-[4-(3-bromo-phenoxy)-2-methyl-phenyl]-1H-pyrazole-4-carbonyl}-1H-indol-5-yl)-morpholin-4-yl-methanone]",3.5 nM
18,"Cc1cc(Oc2cccc(C#N)c2)ccc1-n1ncc(C(=O)c2cc3cc(C(=O)N4CCOCC4)ccc3[nH]2)c1N [Example I-18, 3-(4-{5-Amino-4-[5-(morpholine-4-carbonyl)-1H-indole-2-carbonyl]-pyrazol-1-yl}-3-methyl-phenoxy)-benzonitrile]",5.2 nM
19,"Cc1cc(Oc2cccc(C(C)(C)C)c2)ccc1-n1ncc(C(=O)c2cc3cc(C(=O)N4CCOCC4)ccc3[nH]2)c1N [Example I-19, {5-Amino-1-[4-(3-tert-butyl-phenoxy)-2-methyl-phenyl]-1H-pyrazol-4-yl}-[5-(morpholine-4-carbonyl)-1H-indol-2-yl]-methanone]",6.8 nM
20,"COc1ccc(-n2ncc(C(=O)c3cc4cc(C(=O)N5CCOCC5)ccc4[nH]3)c2N)c(C)c1 [Example I-20, [5-Amino-1-(4-methoxy-2-methyl-phenyl)-1H-pyrazol-4-yl]-[5-(morpholine-4-carbonyl)-1H-indol-2-yl]-methanone]",150 nM
21,"N#Cc1cc(Oc2cccc(F)c2F)ccc1-n1ncc(C(=O)c2cc3cc(C(=O)N4CCOCC4)ccc3[nH]2)c1N [Example I-21, 2-{5-Amino-4-[5-(morpholine-4-carbonyl)-1H-indole-2-carbonyl]-pyrazol-1-yl}-5-(2,3-difluoro-phenoxy)-benzonitrile]",> 100000 nM
22,"Nc1c(C(=O)c2cc3cc(C(=O)N4CCOCC4)ccc3[nH]2)cnn1-c1ccc(Oc2cccc(F)c2F)cc1Br [Example I-22, {5-Amino-1-[2-bromo-4-(2,3-difluoro-phenoxy)-phenyl]-1H-pyrazol-4-yl}-[5-(morpholine-4-carbonyl)-1H-indol-2-yl]-methanone]",1.3 nM
23,"Cc1cc(Oc2cccc(F)c2F)cc(C)c1-n1ncc(C(=O)c2cc3cc(C(=O)N4CCOCC4)ccc3[nH]2)c1N [Example I-24, {5-Amino-1-[4-(2,3-difluoro-phenoxy)-2,6-dimethyl-phenyl]-1H-pyrazol-4-yl}-[5-(morpholine-4-carbonyl)-1H-indol-2-yl]-methanone]",35 nM
24,"COc1nc(Oc2cccc(F)c2F)ccc1-n1ncc(C(=O)c2cc3cc(C(=O)N4CCOCC4)ccc3[nH]2)c1N [Example I-25, {5-Amino-1-[6-(2,3-difluoro-phenoxy)-2-methoxy-pyridin-3-yl]-1H-pyrazol-4-yl}-[5-(morpholine-4-carbonyl)-1H-indol-2-yl]-methanone]",74 nM
25,"Cc1cc(Oc2cccc(F)c2F)ccc1-n1ncc(C(=O)c2cc3cc(C(=O)O)ccc3[nH]2)c1N [Example I-26, 2-{5-Amino-1-[4-(2,3-difluoro-phenoxy)-2-methyl-phenyl]-1H-pyrazole-4-carbonyl}-1H-indole-5-carboxylic acid]",14 nM
26,"Cc1cc(OCc2ccc(Cl)cc2)ccc1-n1ncc(C(=O)c2cc3cc(C(=O)N4CCOCC4)ccc3[nH]2)c1N [Example I-27, {5-Amino-1-[4-(4-chloro-benzyloxy)-2-methyl-phenyl]-1H-pyrazol-4-yl}-[5-(morpholine-4-carbonyl)-1H-indol-2-yl]-methanone]",3.7 nM
27,"COc1cc(Oc2cccc(F)c2F)ccc1-n1ncc(C(=O)c2cc3cc(C(=O)N4CCOCC4)ccc3[nH]2)c1N [Example I-28, {5-Amino-1-[4-(2,3-difluoro-phenoxy)-2-methoxy-phenyl]-1H-pyrazol-4-yl}-[5-(morpholine-4-carbonyl)-1H-indol-2-yl]-methanone]",6.9 nM
